Drawing on patent publication US10160747B2, “Compounds and methods for kinase modulation, and indications therefor” (Plexxikon Inc., priority 2016, dated 2018), this text covers IC50 for 22 compounds.

What is called IC50 is the point on the concentration scale where inhibition reaches its midpoint.

In assay [1] the target is T1, FLT3-ITD (Homo sapiens, UniProt P36888).
T1 sequence (P36888 1-993): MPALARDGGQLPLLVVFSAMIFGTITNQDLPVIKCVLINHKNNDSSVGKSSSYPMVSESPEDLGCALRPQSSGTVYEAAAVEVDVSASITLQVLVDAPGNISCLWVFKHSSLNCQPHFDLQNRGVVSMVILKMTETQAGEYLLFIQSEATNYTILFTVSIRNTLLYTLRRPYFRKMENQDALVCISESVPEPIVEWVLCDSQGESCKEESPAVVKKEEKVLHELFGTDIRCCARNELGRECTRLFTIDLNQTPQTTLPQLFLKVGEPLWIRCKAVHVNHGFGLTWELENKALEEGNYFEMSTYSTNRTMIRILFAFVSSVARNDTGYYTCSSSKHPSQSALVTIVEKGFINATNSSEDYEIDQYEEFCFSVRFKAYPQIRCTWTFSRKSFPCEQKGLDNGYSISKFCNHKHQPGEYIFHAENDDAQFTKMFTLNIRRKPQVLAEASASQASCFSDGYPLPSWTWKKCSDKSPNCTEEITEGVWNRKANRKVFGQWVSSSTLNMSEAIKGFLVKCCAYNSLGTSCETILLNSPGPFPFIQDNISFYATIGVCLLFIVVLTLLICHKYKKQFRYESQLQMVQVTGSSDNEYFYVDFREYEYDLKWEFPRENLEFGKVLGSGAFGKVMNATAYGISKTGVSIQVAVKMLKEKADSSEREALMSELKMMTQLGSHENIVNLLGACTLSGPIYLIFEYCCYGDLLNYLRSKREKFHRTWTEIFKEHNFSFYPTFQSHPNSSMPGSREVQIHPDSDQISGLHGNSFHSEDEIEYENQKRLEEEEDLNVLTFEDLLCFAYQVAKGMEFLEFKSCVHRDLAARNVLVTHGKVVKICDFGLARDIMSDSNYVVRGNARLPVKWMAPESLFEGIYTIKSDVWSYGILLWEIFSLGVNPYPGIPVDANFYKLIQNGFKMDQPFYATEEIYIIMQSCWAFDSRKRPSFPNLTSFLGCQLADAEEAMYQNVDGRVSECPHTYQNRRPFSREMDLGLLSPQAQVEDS
As to the kind of experiment: FLT3-ITD recombinant enzyme kinase assay (AlphaScreen). It is filed as biochemical. As to conditions: 8 pt; read-out: FLT3_ITD 8 pt: IC50. The procedure, abridged: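 Enzyme plus biotinylated poly(Glu4-Tyr) substrate (30 nM) mixed with compound, then ATP added. Donor beads went in for 20 min at room temperature, then PY20 acceptor beads for 60 min. AlphaScreen read; ATP was 10 μM for FLT3-ITD/D835Y and 100 μM for c-KIT.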
In general terms: In Alpha technology, singlet oxygen from a donor bead excites a nearby acceptor bead.

The test system of assay [2] is MOLM-14 D835Y (endogenous FLT3 ITD and transfected FLT3 D835Y). As to the kind of experiment: MOLM-14 D835Y cell proliferation assay (CellTiter-Glo). In kind it is cell-based. As to conditions: Homo sapiens, MOLM-14, 72 h; 3 d growth, GMean. The method in brief: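 MOLM-14 derivatives carrying D835Y or F691L, selected under escalating AC220, were seeded at 1×10^4 cells/well and exposed to an 8-point 1:3 compound series (1 to 0.00046 μM, 0.2% DMSO final) for three days at 37° C., 5% CO2. CellTiter-Glo luminescence (ATP content) versus concentration gave IC50.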
In general terms: Cellular ATP, detected with luciferase, serves as a proxy for viable cell number.

Regarding `Cn1cc(Nc2ncc(-c3ccc(CC(=O)Nc4ccc(S(C)(=O)=O)cc4)cc3)cn2)cn1` [Compound P-0156, 2-[4-[2-[(1-methylpyrazol-4-yl)amino]pyrimidin-5-yl]phenyl]-N-(4-methylsulfonylphenyl)acetamide], the IC50 in assay [1] and in assay [2] was 0.0001 to 10 µM in each case.

With `Cc1ncc(NC(=O)Cc2ccc(-c3cnc4[nH]nc(C)c4c3)c(F)c2)cc1C(F)(F)F` [Compound P-0172, 2-[3-fluoro-4-(3-methyl-1H-pyrazolo[3,4-b]pyridin-5-yl)phenyl]-N-[6-methyl-5-(trifluoromethyl)-3-pyridyl]acetamide], the IC50 in assay [1] and in assay [2] was 0.0001 to 10 µM in each case.

Take `Cn1cc(Nc2ncc(-c3ccc(CC(=O)Nc4cccc(C(F)(F)F)c4)cc3)cn2)cn1` [Compound P-0141, 2-[4-[2-[(1-methylpyrazol-4-yl)amino]pyrimidin-5-yl]phenyl]-N-[3-(trifluoromethyl)phenyl]acetamide]: the IC50 in assay [1] and in assay [2] was 0.0001 to 10 µM in each case.

Take `O=C(Cc1ccc(-c2cnc3[nH]c(-c4cnn(C(F)F)c4)cc3c2)c(F)c1)Nc1cncc(C(F)(F)F)c1` [Compound P-0197, 2-[4-[2-[1-(difluoromethyl)pyrazol-4-yl]-1H-pyrrolo[2,3-b]pyridin-5-yl]-3-fluoro-phenyl]-N-[5-(trifluoromethyl)-3-pyridyl]acetamide]: the half-inhibitory concentration (IC50) in assay [1] and in assay [2] was 0.0001 to 10 µM throughout.

With `COc1nn(C[C@H](C)O)cc1Nc1ncc(-c2ccc(CC(=O)Nc3cnc(C)c(C(F)(F)F)c3)cc2)cn1` [Compound P-0180, 2-[4-[2-[[1-[(2S)-2-hydroxypropyl]-3-methoxy-pyrazol-4-yl]amino]pyrimidin-5-yl]phenyl]-N-[6-methyl-5-(trifluoromethyl)-3-pyridyl]acetamide], the IC50 in assay [1] and in assay [2] was 0.0001 to 10 µM each time.

For `Cn1cc(Nc2ncc(-c3ccc(CC(=O)NCc4cncc(C(F)(F)F)c4)cc3)cn2)cn1` [Compound P-0161, 2-[4-[2-[(1-methylpyrazol-4-yl)amino]pyrimidin-5-yl]phenyl]-N-[[5-(trifluoromethyl)-3-pyridyl]methyl]acetamide], the IC50 in assay [1] and in assay [2] was 0.0001 to 10 µM throughout.

As for `COc1cc(NC(=O)Cc2ccc(-c3cnc(Nc4cnn(C)c4)nc3)cc2)ccn1` [Compound P-0153, N-(2-methoxy-4-pyridyl)-2-[4-[2-[(1-methylpyrazol-4-yl)amino]pyrimidin-5-yl]phenyl]acetamide], the IC50 in assay [1] and in assay [2] was 0.0001 to 10 µM throughout.

For the compound `Cn1cnc(Nc2ncc(-c3ccc(CC(=O)Nc4cc(C(C)(F)F)ccn4)cc3)cn2)c1` [Compound P-0169, N-[4-(1,1-difluoroethyl)-2-pyridyl]-2-[4-[2-[(1-methylimidazol-4-yl)amino]pyrimidin-5-yl]phenyl]acetamide], the IC50 in assay [1] and in assay [2] was 0.0001 to 10 µM each time.

On to `CCc1cncc(NC(=O)Cc2ccc(-c3cnc(Nc4cnn(C)c4)nc3)cc2F)c1` [Compound P-0111, N-(5-ethyl-3-pyridyl)-2-[2-fluoro-4-[2-[(1-methylpyrazol-4-yl)amino]pyrimidin-5-yl]phenyl]acetamide], for which the IC50 in assay [1] and in assay [2] was 0.0001 to 10 µM each time.

For the compound `Cc1n[nH]c2ncc(-c3ccc(CC(=O)Nc4cncc(C(F)(F)F)c4)cc3F)cc12` [Compound P-0177, 2-[3-fluoro-4-(3-methyl-1H-pyrazolo[3,4-b]pyridin-5-yl)phenyl]-N-[5-(trifluoromethyl)-3-pyridyl]acetamide], the IC50 in assay [1] and in assay [2] was 0.0001 to 10 µM in each case.

For the compound `O=C(Cc1ccc(-c2cnc3[nH]c(-c4ccc(N5CCOCC5)nc4)cc3c2)cn1)Nc1ccnc(C(F)(F)F)c1` [Compound P-0183, 2-[5-[2-(6-morpholino-3-pyridyl)-1H-pyrrolo[2,3-b]pyridin-5-yl]-2-pyridyl]-N-[2-(trifluoromethyl)-4-pyridyl]acetamide], the IC50 in assay [1] and in assay [2] was 0.0001 to 10 µM throughout.

Take `O=C(Cc1ccc(-c2cnc3[nH]c(-c4ccccc4)cc3c2)cn1)Nc1ccnc(C(F)(F)F)c1` [Compound P-0005, 2-[5-(2-phenyl-1H-pyrrolo[2,3-b]pyridin-5-yl)-2-pyridyl]-N-[2-(trifluoromethyl)-4-pyridyl]acetamide]: the IC50 in assay [1] and in assay [2] was 0.0001 to 10 µM in each case.

On to `Cn1cnc(Nc2ncc(-c3ccc(CC(=O)Nc4cnc(F)c(C(C)(F)F)c4)cc3)cn2)c1` [Compound P-0168, N-[5-(1,1-difluoroethyl)-6-fluoro-3-pyridyl]-2-[4-[2-[(1-methylimidazol-4-yl)amino]pyrimidin-5-yl]phenyl]acetamide], for which the IC50 in assay [1] and in assay [2] was 0.0001 to 10 µM in each case.

With `Cn1cc(Nc2ncc(-c3ccc(CC(=O)Nc4cc(Cl)c(C5CC5)cn4)cc3)cn2)cn1` [Compound P-0164, N-(4-chloro-5-cyclopropyl-2-pyridyl)-2-[4-[2-[(1-methylpyrazol-4-yl)amino]pyrimidin-5-yl]phenyl]acetamide], the IC50 in assay [1] and in assay [2] was 0.0001 to 10 µM throughout.

For the compound `COc1ccccc1CNC(=O)Cc1ccc(-c2cnc(Nc3cnn(C)c3)nc2)cc1` [Compound P-0160, N-[(2-methoxyphenyl)methyl]-2-[4-[2-[(1-methylpyrazol-4-yl)amino]pyrimidin-5-yl]phenyl]acetamide], the IC50 in assay [1] and in assay [2] was 0.0001 to 10 µM throughout.

As to `O=C(Cc1ccc(-c2cnc3[nH]c(-c4ccccc4)cc3c2)c(F)c1)Nc1cccc(C(F)(F)F)c1` [Compound P-0003, 2-[3-fluoro-4-(2-phenyl-1H-pyrrolo[2,3-b]pyridin-5-yl)phenyl]-N-[3-(trifluoromethyl)phenyl]acetamide], the half-inhibitory concentration (IC50) in assay [1] and in assay [2] was 0.0001 to 10 µM throughout.

In the case of `Cn1cc(Nc2ncc(-c3ccc(CC(=O)NCc4ncccc4C(F)(F)F)cc3)cn2)cn1` [Compound P-0159, 2-[4-[2-[(1-methylpyrazol-4-yl)amino]pyrimidin-5-yl]phenyl]-N-[[3-(trifluoromethyl)-2-pyridyl]methyl]acetamide], the IC50 in assay [1] and in assay [2] was 0.0001 to 10 µM throughout.

On to `Cn1cc(Nc2ncc(-c3ccc(CC(=O)Nc4cncc(C(F)(F)F)c4)cc3)cn2)cn1` [Compound P-0136, 2-[4-[2-[(1-methylpyrazol-4-yl)amino]pyrimidin-5-yl]phenyl]-N-[5-(trifluoromethyl)-3-pyridyl]acetamide], for which the half-maximal inhibitory concentration (IC50) in assay [1] and in assay [2] was 0.0001 to 10 µM each time.

`O=C(Cc1ccc(-c2cnc3[nH]c(-c4ccnc(N5CCOCC5)c4)cc3c2)cn1)Nc1ccnc(C(F)(F)F)c1` [Compound P-0181, 2-[5-[2-(2-morpholino-4-pyridyl)-1H-pyrrolo[2,3-b]pyridin-5-yl]-2-pyridyl]-N-[2-(trifluoromethyl)-4-pyridyl]acetamide]: the IC50 in assay [1] and in assay [2] was 0.0001 to 10 µM throughout.

For the compound `Cc1n[nH]c2ncc(-c3cc(F)c(CC(=O)Nc4cncc(C(F)(F)F)c4)cc3F)cc12` [Compound P-0173, 2-[2,5-difluoro-4-(3-methyl-1H-pyrazolo[3,4-b]pyridin-5-yl)phenyl]-N-[5-(trifluoromethyl)-3-pyridyl]acetamide], the IC50 in assay [1] and in assay [2] was 0.0001 to 10 µM each time.

Regarding `Cn1cnc(Nc2ncc(-c3ccc(CC(=O)Nc4cnc(F)c(C(C)(F)F)c4)cc3F)cn2)c1` [Compound P-0170, N-[5-(1,1-difluoroethyl)-6-fluoro-3-pyridyl]-2-[3-fluoro-4-[2-[(1-methylimidazol-4-yl)amino]pyrimidin-5-yl]phenyl]acetamide], the half-maximal inhibitory concentration (IC50) in assay [1] and in assay [2] was 0.0001 to 10 µM throughout.

Take `Cn1cc(Nc2ncc(-c3ccc(CC(=O)Nc4ccc(C(F)(F)F)c(F)c4)cc3)cn2)cn1` [Compound P-0142, N-[3-fluoro-4-(trifluoromethyl)phenyl]-2-[4-[2-[(1-methylpyrazol-4-yl)amino]pyrimidin-5-yl]phenyl]acetamide]: the IC50 in assay [1] and in assay [2] was 0.0001 to 10 µM in each case.
